Test [1] relates to RA and TOTAL keratinocytes. Description: MITOSOX test (mitochondrial production of free radicals under H2O2 or UVB stress). Type of test: cell-based, human. Particulars: peptide at 1% and 3%, 48 hours, stress 5 mM H2O2 30 minutes or UVB 100 mJ/cm^2. An excerpt:
Mitosox is a reactant marketed by Invitrogen (molecular probes M36008). It is used during UV and H2O2 oxidative stress. It uses microscopic imaging to measure the mitochondrial production of free radicals (ROS) in cells. More particularly, Mitosox is specific to the superoxide anion, which is the predominant form of ROS.
Mitosox is applied to living cells: it permeates the membrane and once inside the cell, diffuses rapidly and specifically within the mitochondria. Once in the mitochondria, Mitosox is oxidized by the superoxide anion into a compound which provides red fluorescence. This reactant is easily oxidized by the superoxide anion but not by other free radicals, nor by reactive species of nitrogen (NOS).
RA and TOTAL keratinocytes (where TOTAL denotes an entire cellular fraction) were treated three times per day with the peptide compound of SEQ ID NO: 3 at concentrations of 1% and 3%, for 48 hours.
In a second step, the cells were placed under stress, caused: • either by exposure to 5 mM H2O2 solution for 30 minutes; • or by UVB radiation at 100 mJ/cm^2.
After stress application, the cells were rinsed and then returned into a suitable medium for one hour at 37° C. in a culture incubator. […] The results were read using fluorescence microscopy.

Another test relates to Survivin protein. Description: Survivin protein expression by Western Blotting on cultured cellular fractions RA and SA1. Type of test: cell-based, human. To be noted: 48 hours, compound diluted to 3% (from a 10^-4 M solution). How it is done: To investigate the role of the CPC proteins in the maintenance and protection of epidermal adult stem cells under various types of stress, several fractions of primary cells of human epidermis were prepared. Fractioning was carried out based on the adhesion time of cells to collagen IV: less than 20 minutes corresponds to fast adhesion (fraction RA), less than 5 hours, to slow adhesion No 1 (fraction SA1), less than 16 hours, to slow adhesion No 2 (fraction SA2), and lastly, non-adhering keratinocytes (fractions NA). […]
An investigation of the modulator effect of the peptide SEQ ID NO: 2 was conducted by evaluating the expression of the Survivin protein by Western Blotting on the cultured cellular fractions RA and SA1. The Western Blot technique is a conventional semi-quantitative method for assessing the proportion of proteins in cells.
Fractions RA and SA1 were grown in boxes 100 mm in diameter at 37° C. in a humidified atmosphere containing 5% CO2 for 48 hours with or without the compound, diluted to 3% (from a 10^−4 M solution). […] The quantitative evaluation of the proteins in the cells is performed using the Chemiimager software (Alpha Innotech Corporation USA). The amount of proteins is expressed as a percentage of the light intensity compared with that of the control conditions, under which no treatment has been received.
In general terms: In western blotting, separated proteins are transferred to a membrane and probed.

The subject of another test is Keratin K19. As to the kind of experiment: Keratin K19 immunolabeling in UV-irradiated hair follicles maintained in culture. Type of test: cell-based. To be noted: hair follicles treated with 1% peptide 24 hours before UV irradiation (UVA 5 J/cm, UVB 200 mJ/cm^2); image analysis. How it is done: The hair follicles were sampled from a biopsy using a scalpel and fine pliers, and then cultured in 24-well plates using William's E medium in the presence of antibiotics (0.2% Primocin), 10 μg/ml insulin, 10 ng/ml hydrocortisone and 2 mmol/L L-glutamine.
The follicles were either treated or not with the 1% peptide compound SEQ ID NO: 2 in Williams' medium and then incubated for 24 hours. UV irradiation was then applied (UVA: 5 J/cm, UVB 200 mJ/cm^2), and the follicles were then re-cultured for 24 hours. At the end of the experiment, the follicles were incorporated within OCT and frozen at −196° C. (liquid nitrogen). The follicles were then placed in a cryostat in order to prepare 6-μm sections at a temperature of −23° C. The slides containing the sections were placed in an acetone bath for 10 minutes (fixing) and then rinsed.
The fixed sections were rinsed once with PBS for 5 minutes, and then wrapped in Pappen. Each section was incubated with 5 μl 5%-BSA for 30 minutes. Then, 50 μl of primary anti-Cytokeratin K19 antibody (Progen, Mouse monoclonal) diluted to 1/50th were added and incubated for one hour with stirring in a humid chamber. After rinsing with PBS for 30 minutes, 50 μl of a fluorescence-labeled secondary antibody was added and left for one hour in the dark with stirring in a humid chamber. […]

The subject of test [2] is cellular fraction RA (enriched with epidermal adult stem cells). Description: Comets test on cellular fraction RA after UVB irradiation. It counts as cell-based, human. To be noted: RA cells cultured 24 hours with peptide at 1%, then UVB 60 mJ/cm^2. The protocol: The comets test is a test that allows damage caused to DNA to be quantified at a cellular level.
To this end, in order to confirm the protective effect of a peptide compound according to the present invention, cells of the RA type were cultured for 24 hours with the peptide compound of sequence SEQ ID NO: 2 at a concentration of 1%, and then irradiated with
UVB radiation at 60 mJ/cm^2. […] The cells were then removed by trypsination from their carrier, and then centrifuged at 900 rpm for 5 minutes before being concentrated and counted.
A specific cell count (25,000 cells) was then incorporated into a 0.75% Low Melting agarose gel, and then deposited on a glass slide previously coated with 1% agarose. The slides were then immersed in a lysis solution for 1.5 hours at 4° C., and then in an alkaline solution for 20 minutes at 4° C. The cells were then lysed and the DNA denatured. The slides were immersed in an electrophoresis solution before applying an electric field (20 V-250 mA). The thus denatured DNA was subjected to migration within an agarose gel at 4° C. Applying a DNA fluorescent dye on the slides (2 μg/ml propidium iodide) allowed the DNA to be observed in the form of comets in those cases where it had been damaged.
Quantification software is used to determine the average Tail moment applied to each condition being tested. […]

Ends that are not written are not given here.

For DAREMNWDT [SEQ ID NO: 3], the “number of fluorescent cells (Mitosox, free radical production)” value in test [1] was “extremely low”.

Turning to “Arg-Glu-Met-Asn-Trp-NH2 (REMNW-NH2) [SEQ ID NO: 2]”, the “expression of the Survivin protein” value with Survivin protein (fraction RA (very rich in epidermal adult stem cells)) and with Survivin protein (fraction SA1 (less rich in epidermal adult stem cells)) was “increased” throughout. The “fluorescent values of Keratin K19” value in the test with Keratin K19 was “+102.7%”. Besides, the “Tail Moment decrease vs UVB control” value in test [2] amounted to 44.7%.
